# Reference: ChEMBL document CHEMBL6103553, “Small molecule inhibitors targeting PD-L1, CTLA4, VISTA, TIM-3, and LAG3 for cancer immunotherapy (2020-2024)” (Eur J Med Chem, 2025)
# Legend:
# [1] = Inhibition of CTLA-4/CD80 (unknown origin) protein-protein interaction; set-up: species or system Homo sapiens
# [2] = Induction of PD-L1 degradation in human NCI-H460 cells transfected with siRNA ABCB1 incubated for 2 hrs by Western blot analysis; settings: NCI-H460, 2 h
# [3] = target: T1, V-type immunoglobulin domain-containing suppressor of T-cell activation (Homo sapiens, UniProt Q9H7M9); assay: Inhibition of N-terminal His-tagged human recombinant VISTA (1 to 161 residues) transfected in human Expi293 cells incubated for 60 mins by ELISA analysis; type: cell-based
# T1 sequence (Q9H7M9 whole entry): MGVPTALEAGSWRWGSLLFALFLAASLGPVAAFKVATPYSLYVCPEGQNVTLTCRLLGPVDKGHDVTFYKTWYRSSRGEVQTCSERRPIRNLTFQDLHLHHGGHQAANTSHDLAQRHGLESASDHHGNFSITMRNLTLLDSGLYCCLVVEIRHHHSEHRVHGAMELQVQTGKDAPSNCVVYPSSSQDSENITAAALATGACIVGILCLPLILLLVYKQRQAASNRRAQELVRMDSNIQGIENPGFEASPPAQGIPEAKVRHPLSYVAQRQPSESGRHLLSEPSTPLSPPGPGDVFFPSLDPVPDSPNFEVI
# [4] = Inhibition of VISTA/VSIG-3 (unknown origin) protein-protein interaction by TR-FRET assay
# [5] = target: T1, V-type immunoglobulin domain-containing suppressor of T-cell activation; assay: biochemical
# Description: Binding affinity to N-terminal His-tagged human recombinant VISTA (1 to 161 residues) transfected in human Expi293 cells assessed as dissociation constant incubated for 60 mins by SPR assay
# [6] = Inhibition of PD-L1 (unknown origin) by HTRF assay; set-up: species or system Homo sapiens
# [7] = Inhibition of LAG-3/MHC-II (unknown origin) interaction by TR-FRET assay; set-up: species or system Homo sapiens
# [8] = Binding affinity to PD-L1 (unknown origin) assessed as dissociation constant; set-up: species or system Homo sapiens
# [9] = Inhibition of PD-L1 (unknown origin) by FRET assay; set-up: species or system Homo sapiens
# [10] = Inhibition of human PD-L1 by HTRF assay
# Tubulin = assay: Inhibition of tubulin polymerization (unknown origin); type: protein-complex assay, Homo sapiens
# [11] = target: Programmed cell death protein 1/Programmed cell death 1 ligand 1 (Homo sapiens, UniProt Q9NZQ7); assay: Inhibition of human PD-1/PD-L1 incubated for 1 hr by HTRF assay; type: protein-complex assay
# MC-38 = assay: Antitumor activity against mouse MC-38 cells implanted in C57BL/6N mouse assessed as reduction in tumor volume at 10 mg/kg, ip in presence of PD-L1 and measured after 10 days relative to control; type: functional; set-up: scale not given: the % may be the effect or the level left; settings: time 10 day
# [12] = Inhibition of his-tagged CTLA-4/CD80 (unknown origin) protein-protein interaction by TR-FRET assay; set-up: species or system Homo sapiens
# [13] = Stability in mouse plasma assessed as half life; type: ADME, cell-free
# Programmed cell death protein 1/Programmed cell death 1 ligand 1, sequence (Q15116 whole entry): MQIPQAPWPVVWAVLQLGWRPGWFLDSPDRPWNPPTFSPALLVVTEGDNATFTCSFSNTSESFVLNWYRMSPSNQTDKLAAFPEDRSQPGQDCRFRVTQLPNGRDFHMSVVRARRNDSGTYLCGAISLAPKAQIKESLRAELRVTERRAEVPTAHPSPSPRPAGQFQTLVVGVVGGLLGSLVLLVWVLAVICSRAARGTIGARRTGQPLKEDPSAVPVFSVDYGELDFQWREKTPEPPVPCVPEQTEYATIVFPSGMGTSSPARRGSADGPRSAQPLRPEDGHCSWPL
# Programmed cell death protein 1/Programmed cell death 1 ligand 1, sequence (Q9NZQ7 whole entry): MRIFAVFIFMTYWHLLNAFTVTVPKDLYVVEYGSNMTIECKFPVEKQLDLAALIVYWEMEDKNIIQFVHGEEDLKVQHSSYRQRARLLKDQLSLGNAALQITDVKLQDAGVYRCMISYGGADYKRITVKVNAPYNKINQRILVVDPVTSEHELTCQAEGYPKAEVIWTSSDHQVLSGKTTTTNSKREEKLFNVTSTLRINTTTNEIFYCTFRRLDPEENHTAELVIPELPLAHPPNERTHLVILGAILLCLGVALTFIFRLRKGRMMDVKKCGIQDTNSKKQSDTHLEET
smiles,measurement,setting,value
O=C(CSc1ccccc1Cl)N1N=C(c2cccs2)CC1c1ccco1 (centres undefined),IC50,[1],1300 nM
COc1ccc2cc3[n+](cc2c1OC)CCc1cc2c(cc1-3)OCO2 [BERBERINE CHLORIDE],DC50,[2],< 2000 nM
C[C@@]1(C(=O)O)CC[C@]2(C)CC[C@]3(C)C4=CC(=O)c5c(cc(O)c(O)c5C=O)[C@]4(C)CC[C@@]3(C)[C@@H]2C1,DC50,[2],< 5000 nM
CN(C)c1n/c(=N/Cc2ccco2)ss1,IC50,[3],4500 nM
same,IC50,[4],9700 nM
same,Kd,[5],6200 nM
CCOC(=O)C(COC(=O)NCCSSCCNC(=O)O/N=C(\Nc1ccc(C)c(O)c1)c1nonc1N)NCc1cc(Cl)c(OCc2cccc(-c3ccccc3)c2Br)cc1OCc1ccnc(C#N)c1 (centres undefined),IC50,[6],< 100 nM
Clc1ccc(C2=NN(Cc3ccccc3)CC2c2ccccc2)cc1 (centres undefined),IC50,[1],970 nM
Cc1ccc([C@@H]2O[C@H](CO)[C@@H](O)[C@H](O)[C@H]2O)cc1Cc1ccc(-c2ccc(F)cc2)s1 [CANAGLIFLOZIN ANHYDROUS],DC50,[2],< 20000 nM
O[C@@H](COc1cccc2ncccc12)CN1CCN([C@@H]2c3ccccc3[C@@H]3[C@H](c4ccccc42)C3(F)F)CC1 [ZOSUQUIDAR],DC50,[2],< 10000 nM
Cc1cc(C(=O)COc2ccc(NC(=O)c3ccco3)cc2)c(C)n1Cc1ccccc1,IC50,[7],4200 nM
CCOC(=O)C1=C(COCCS)NC(C)=C(C(=O)OC)C1c1ccccc1Cl (centres undefined),DC50,[2],< 10000 nM
Cc1c(COc2ccc(CN3CCCCC3C(=O)NCCOCCNC(=O)CCCCCn3cc(CCCC(=O)NCCCC[C@@H]4NC(=O)[C@@H](Cc5ccc(O)cc5)NC(=O)[C@H](CC(=O)O)NC(=O)CNC(=O)[C@H](CCCNC(=N)N)NC4=O)nn3)cc2Br)cccc1-c1ccccc1 (some centres undefined),DC50,[2],< 100 nM
Oc1cc(-c2ccc(Cl)cc2Cl)nn1-c1ccccn1,Kd,[8],110 nM
same,IC50,[9],77 nM
COc1ccc(/C=C\c2cc(OC)c(OC)c(OC)c2)cc1OCc1ccc(CC=O)cc1,IC50,[10],48.8 nM
same,IC50,Tubulin,16100 nM
C/C(=N\OCC(=O)Nc1ccc(C)c(F)c1)c1nc(-c2ccccc2)[nH]c1C,IC50,[1],1400 nM
O=[N+]([O-])c1cccc(/C=N/OCc2csc(-c3ccccc3)n2)c1,IC50,[1],4500 nM
CN(C)C(=N)NC(=N)N [METFORMIN],DC50,[2],< 2000 nM
CCCCCN(CCCCC)C(C)C(=O)c1cc(C)c2ccc3cc(C(C)C)ccc3c2c1 (centres undefined),IC50,[11],96 nM
same,Activity,MC-38,93.6%
O=[N+]([O-])c1cccc(/C=N/OCc2coc(-c3cccc(F)c3)n2)c1,IC50,[12],5160 nM
Oc1cc(-c2cccc(C(F)(F)F)c2)nn1-c1ccccn1,Kd,[8],1200 nM
same,IC50,[9],1100 nM
COc1ccc(-c2nc(CO/N=C/c3ccccc3Cl)co2)cc1,IC50,[1],1500 nM
CN(C)c1n/c(=N/Cc2cccs2)ss1,IC50,[3],6400 nM
Cc1c(COc2ccc(CN3CCCCC3C(=O)NCCOCCOCCOCCNC(=O)CCCCCn3cc(CCCC(=O)NCCCC[C@@H]4NC(=O)[C@@H](Cc5ccc(O)cc5)NC(=O)[C@H](CC(=O)O)NC(=O)CNC(=O)[C@H](CCCNC(=N)N)NC4=O)nn3)cc2Br)cccc1-c1ccccc1 (some centres undefined),DC50,[2],< 100 nM
Clc1ccc(C2=NN(c3ccccc3)C(c3ccco3)C2)cc1 (centres undefined),IC50,[12],1000 nM
CC(=O)Nc1ccc(OCC(=O)c2cc(C)n(C(C)C)c2C)cc1,IC50,[7],> 50000 nM
Cc1cc(O)n(-c2ccccc2)n1,Kd,[8],98 nM
same,IC50,[9],92 nM
N=c1[nH]c2c3c(c4[nH]c(=N)[nH]c4c2[nH]1)[C@@H](CNC(=O)c1cc(Br)c(Br)[nH]1)[C@@H]3CNC(=O)c1cc(Br)c(Br)[nH]1,DC50,[2],< 5000 nM
Cc1cccc2nc(-c3cccc(CNCCO)c3)[nH]c12,IC50,[3],256000 nM
Cc1c(-c2ccccc2)ccc2nc(-c3ccc(CNCCO)cc3)[nH]c12,IC50,[3],1100 nM
Oc1cc(-c2ccc(C(F)(F)F)cc2)nn1-c1ccccn1,Kd,[8],156 nM
same,IC50,[9],143 nM
same,half-life,[13],< 30 min
Cc1cc(C(=O)COc2ccc(NC(=O)c3ccco3)cc2)c(C)n1-c1ccccc1,IC50,[7],8300 nM
Cc1c(COc2ccc(CN3CCCCC3C(=O)NCCCn3cc(CCCC(=O)NCCCC[C@@H]4NC(=O)[C@@H](Cc5ccc(O)cc5)NC(=O)[C@H](CC(=O)O)NC(=O)CNC(=O)[C@H](CCCNC(=N)N)NC4=O)nn3)cc2Br)cccc1-c1ccccc1 (some centres undefined),DC50,[2],< 50000 nM
Cc1nc(C)c(C(=O)NNC(=O)Cc2ccccc2)cc1C(=O)NNC(=O)Cc1ccccc1,IC50,[11],1.09 nM
COc1ccc(-c2nc(N)nc(-c3cc(C)ccc3O)c2Cl)cc1,IC50,[11],2.44 nM
Clc1ccc(C2CN(c3ccccc3)N=C2c2ccco2)cc1 (centres undefined),IC50,[12],4100 nM
COc1ccccc1C1CN(c2ccccc2)N=C1c1cccs1 (centres undefined),IC50,[1],1900 nM
